Laboratory results as given in US12702697B2, “Compositions and methods for treatment of headache disorders and neuropathic pain” (Washington University, priority 2019, dated 2026).

Legend:
[1] = test system: nerve injury-induced punctate and dynamic allodynia; conditions: cited from earlier work
[2] = test system: NTG/NO donor- or mTBI-induced cutaneous allodynia in rodents; conditions: cited from earlier work; for persistent cephalic mechanical hypersensitivity induced by repeated isosorbide dinitrate: Dallel R, et al., Cephalalgia 2018
[3] = test system: sumatriptan-induced cutaneous hypersensitivity in mice; experiment: Mouse model of medication overuse headache (repeated sumatriptan); format: in vivo; conditions: daily sumatriptan 0.6 mg/kg i.p.; male and female C57BL/6J
Description: Mouse model of medication overuse headache. After measuring baseline nociceptive responses, mice received daily i.p. injections of sumatriptan succinate (0.6 mg/kg; Fresenius Kabi, Lake Zurich, IL44). Daily ld-IL2 or saline were administered after mice received 2 sumatriptan injections. Facial and hindpaw mechanical thresholds were measured every 2 days. Note that on the days that the mouse behaviors were tested, sumatriptan and/or IL2 were always injected after completing the behavioral tests.
(§1) Responses to mechanical stimuli on the hindpaw. Mice were habituated in individual clear plexiglass boxes (11×11×15 cm) for 1 to 2 hours. A series of calibrated von Frey filaments was used to apply mechanical stimuli to the plantar surface of the hindpaws. The up-down paradigm was used to determine the 50% withdrawal threshold. The thresholds for both hindpaws were averaged to yield a single value for each mouse.
(§2) Withdrawal responses to facial mechanical stimuli. The hair on mouse forehead (above and between 2 eyes) was shaved the day before testing. On the test day, the experimenter gently held the mouse on the palm with minimal restraint and applied the calibrated von Frey filament perpendicularly to the shaved skin, causing the filament to bend for 5 seconds. A positive response was determined by the following criteria as previously described: mouse vigorously stroked its face with the forepaw, head withdrawal from the stimulus, or head shaking (Elliott M B et al., Headache 2012; 52:966-84). The up-down paradigm was used to determine the 50% withdrawal threshold.

[4] = test system: NTG-induced skin hypersensitivity in mice; experiment: Mouse model of chronic migraine (repetitive NTG): hindpaw and facial von Frey thresholds, cheek acetone test; format: in vivo
Description: Mouse model of chronic migraine and drug treatments: After measuring baseline nociceptive responses, mice received repetitive intraperitoneal (i.p.) injections of NTG (10 mg/kg in saline with 1% propylene glycol) or vehicle (saline with 1% propylene glycol in saline, 10 mL/kg) every 2 days for 4 or more times as described previously (Pradhan A A, et al. PAIN 2014; 155:269-74). Nocifensive behaviors were measured 2 days after each injection (before the next treatment). NTG (SDM27; Copperhead Chemical, Tamaqua, PA) was freshly diluted from the stock (10% in propylene glycol, aliquoted in airtight glass vials and stored at 4° C.) with saline for every injection. Recombinant mouse IL2 (carrier-free; Biolegend, San Diego, CA) was freshly diluted from the stock (1 mg/mL aliquots at […]) every day. Each mouse received daily i.p. injection of […] IL2 in […] saline. The control mice received daily i.p. injections of […] saline. In Treg depletion experiment, mice received 1 i.p. injection of antibodies against CD25 ([…], BP0012; BioXcell, West Lebanon, NH11) or control IgG (BP0088; BioXcell). The antibody binds to CD25 on Treg cell membrane and depletes Treg cells through Fcg receptor III-mediated antibody-dependent cellular cytotoxicity and antibody-dependent cellular phagocytosis (Setiady Y Y, et al, Eur J Immunol 2010; 40:780-6). Note that on the days that the mouse behaviors were tested, NTG, IL2 and/or antibodies were always injected after completing the behavioral tests.
as §1
Cheek acetone test. The acute nocifensive response to acetone-evoked evaporative cooling on mouse cheek was measured as previously described (Constandil L, et al. J Pain 2012; 13:579-89). The day before testing, both cheeks were shaved (6.5×12 mm) under brief anesthesia (2% isoflurane in 100% oxygen). On the test day, mice were habituated in individual plexiglass cylinders (11-cm diameter, 15-cm height) situated in front of 3-way mirrors for 1 to 2 hours. Acetone ([…]) was applied to the shaved cheeks and immediately returned mice to the cylinders. Time spent wiping the treated area was recorded by a video camera and quantified offline. For individual mice, acetone was applied alternatingly to both cheeks at 10-minute intervals, and the duration of behavior was averaged from 4 applications.
as §2, with “threshold. […]” for “threshold.”

[5] = test system: Treg cells and CD3+ T cells in dura, TG and DRG; experiment: Immunohistochemistry of CD3+ T cells and EGFP+ Treg cells in dura, TG, DRG and cervical/medullary dorsal horn; format: in vivo, mouse
Description: Tissue preparation, immunohistochemistry, and image analysis. Mice were euthanized with i.p. injection of barbiturate (200 mg/kg) and were transcardially perfused with warm 0.1 M phosphate buffered saline (pH 7.2) followed by cold 4% formaldehyde in 0.1 M phosphate buffer (pH 7.2) for fixation. Trigeminal ganglia, lumbar L4 DRG, and the tissues containing the cervical/medullary dorsal horn (from obex to C3 cervical spinal cord) were collected and sectioned at […] in the transverse plane, collected on Superfrost Plus glass slides in sequence and stored at […]
The dura was carefully dissected from the skull using forceps and stained as whole mount. T cells were identified by the rat anti-CD3 antibody (clone 17A2, 1:200; eBioscience, San Diego, CA), and Treg cells were identified with the chicken anti-EGFP (1:1000; AVES Lab, Tigard, OR) antibody in tissues from DEREG mice. […] To quantify CD31 T cells and Treg cells on the dura, we took random, nonoverlapping images (10 per mouse) in areas adjacent to the middle meningeal artery (MMA). To quantify T cells and Treg cells in TG, DRG, and cervical/medullary dorsal horn, all cells on individual sections were counted, and the number was multiplied by 4 to obtain the total number of cells per ganglion in each mouse. […] Representative images were adjusted for contrast and brightness using the same parameter within individual experiments. No other manipulations were made to the images. Image analysis was performed with experimenters blinded to the experimental groups.

CN1CC[C@]23c4c5ccc(O)c4O[C@H]2[C@@H](O)C=C[C@H]3[C@H]1C5 [morphine]
nerve injury-induced punctate allodynia, early stage ([1]; <2 weeks post-injury): attenuates
nerve injury-induced dynamic allodynia ([1]; all stages): does not respond
nerve injury-induced punctate allodynia, late stage ([1]; late stage): not late stage

CC(C)NCC(O)COc1cccc2ccccc12 (stereo not drawn) [propranolol]
persistent facial mechanical hypersensitivity from repeated enhancing of NO signaling ([2]; previous studies): can be blocked

CNS(=O)(=O)Cc1ccc2[nH]cc(CCN(C)C)c2c1 [sumatriptan, sumatriptan succinate]
facial and hindpaw mechanical sensitivity [3]: persistent facial and hindpaw mechanical hypersensitivity
persistent cephalic mechanical hypersensitivity induced by repeated isosorbide dinitrate [2]: neither sumatriptan nor CGRP receptor antagonist olcegepant prevents
NTG-induced acute cutaneous allodynia and central sensitization ([2]; rodents): can be blocked

O=[N+]([O-])OCC(CO[N+](=O)[O-])O[N+](=O)[O-] [NTG, nitroglycerin, reference compound]
mechanical threshold at the periorbital region ([4]; 2 days after the first NTG injection, female Swiss Webster): substantially reduced
50% withdrawal thresholds to von Frey filaments on the hindpaws ([4]; NTG 10 mg/kg i.p. every 2 days for 5 times, male and female C57BL/6J): induced a progressive and sustained mechanical hypersensitivity
facial mechanical threshold 3 hours after systemic NTG ([4]; NTG 10 mg/kg i.p., naive C57BL/6J, day 1): significantly reduced
time facial mechanical hypersensitivity was sustained by repeated NTG injections ([4]; male C57BL/6J): at least 4 weeks
duration of acetone-induced cheek wiping ([4]; repeated NTG, female C57BL/6J): persistent increase
duration of acetone-induced cheek wiping ([4]; repetitive NTG, female Swiss Webster): gradual increase
increase in total CD3+ cells in TG ([5]; repeated NTG): 2 fold
proportion of Treg cells among total T cells in TG ([5]; repeated NTG administration): significantly reduced
density of CD3+ T cells in the dura surrounding the MMA or in L4 DRG ([5]; repeated NTG, C57BL/6J): not altered
CD3+ cells per TG ([5]; repeated NTG, female C57BL/6J, n=6): 4135±562 cells per TG
reduction of the ratio of Treg cells among CD3+ T cells in mouse TG ([5]; repeated injections of NTG): 50%
total number of EGFP+ Treg cells in TG and DRG ([5]; repetitive NTG injections, female DEREG mice): neither was significantly altered

NCCCC[C@H](NC(=O)[C@@H](Cc1cc(Br)c(O)c(Br)c1)NC(=O)N1CCC(N2Cc3ccccc3NC2=O)CC1)C(=O)N1CCN(c2ccncc2)CC1 [olcegepant]
persistent cephalic mechanical hypersensitivity induced by repeated isosorbide dinitrate [2]: neither sumatriptan nor CGRP receptor antagonist olcegepant prevents

CC1(C)O[C@@H]2[C@@H](CO[C@@]3(COS(N)(=O)=O)OC(C)(C)O[C@@H]23)O1 [topiramate]
NTG-enhanced behavioral responses to acetone-induced cooling of facial skin ([2]; daily treatment, mice): can be blocked
